SMILES strings stand for the structures. Read-outs that look alike come from different tables or passages of the source.

We go through two compounds from patent EP1799816B1, “NOVEL LACCASE ENZYME AND USE THEREOF” (AB Enzymes Oy, priority 2004, dated 2006).

Test [1] concerns the target T1, recombinant Thielavia arenaria TaLcc1 laccase (rTaLcc1) expressed in Trichoderma reesei, SEQ ID NO: 12 (Canariomyces arenarius, UniProt F6N9E7).
T1 sequence (F6N9E7 22-604): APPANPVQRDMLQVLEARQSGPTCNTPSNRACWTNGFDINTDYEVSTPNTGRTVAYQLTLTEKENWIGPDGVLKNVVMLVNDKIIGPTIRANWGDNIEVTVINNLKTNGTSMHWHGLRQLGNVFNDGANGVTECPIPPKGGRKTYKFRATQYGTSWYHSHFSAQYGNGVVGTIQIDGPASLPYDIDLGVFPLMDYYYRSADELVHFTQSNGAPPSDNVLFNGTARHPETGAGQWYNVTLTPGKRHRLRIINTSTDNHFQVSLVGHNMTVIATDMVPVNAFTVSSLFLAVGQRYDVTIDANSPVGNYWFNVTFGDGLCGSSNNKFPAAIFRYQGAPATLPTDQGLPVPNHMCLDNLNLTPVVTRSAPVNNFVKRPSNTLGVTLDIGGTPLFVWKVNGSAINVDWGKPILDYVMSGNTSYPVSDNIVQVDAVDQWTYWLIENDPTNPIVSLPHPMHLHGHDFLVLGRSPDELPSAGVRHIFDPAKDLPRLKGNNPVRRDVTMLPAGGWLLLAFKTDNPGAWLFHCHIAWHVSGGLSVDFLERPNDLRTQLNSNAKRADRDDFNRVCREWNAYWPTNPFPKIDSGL
In kind it is biochemical. As to the method:
(§1) On syringaldazin and DMP 40 mM MES buffer, pH 6 and 25 mM succinate bluffer, All activity assays were carried out at 25°C. Kinetic parameters were estimated by a nonlinear regression curve fit. The values were compared to those of Melanocarpus albomyces MaL, laccase.

The target of test [2] is T2, Melanocarpus albomyces laccase MaL (Melanocarpus albomyces, UniProt Q70KY3).
T2 sequence (Q70KY3 51-609): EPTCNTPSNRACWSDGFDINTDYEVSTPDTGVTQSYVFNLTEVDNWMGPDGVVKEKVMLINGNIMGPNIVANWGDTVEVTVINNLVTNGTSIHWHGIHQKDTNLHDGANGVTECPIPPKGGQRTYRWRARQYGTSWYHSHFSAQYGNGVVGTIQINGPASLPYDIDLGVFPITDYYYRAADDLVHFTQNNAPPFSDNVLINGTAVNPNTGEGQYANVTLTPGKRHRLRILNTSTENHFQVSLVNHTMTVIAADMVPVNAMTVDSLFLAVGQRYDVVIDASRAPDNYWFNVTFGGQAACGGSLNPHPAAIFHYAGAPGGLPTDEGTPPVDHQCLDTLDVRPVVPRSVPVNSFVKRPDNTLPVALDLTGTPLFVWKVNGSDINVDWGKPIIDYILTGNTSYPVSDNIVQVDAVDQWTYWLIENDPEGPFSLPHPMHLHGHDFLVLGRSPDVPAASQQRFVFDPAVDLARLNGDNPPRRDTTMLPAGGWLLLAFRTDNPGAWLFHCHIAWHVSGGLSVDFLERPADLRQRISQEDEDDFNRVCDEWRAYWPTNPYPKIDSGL
In words: Kinetic parameters (Km, kcat, kcat/Km) on laccase substrates. It counts as biochemical. The settings on record: substrate ABTS; 25 mM succinate buffer, pH 4.5, 25°C; comparison enzyme. As to the method:
as §1

Broadly, the kcat is the number of substrate molecules converted per active site and unit of time at saturation. In general, Km refers to the substrate concentration at which the rate is half of its maximum. For `CCn1c(=NN=c2sc3cc(S(=O)(=O)O)ccc3n2CC)sc2cc(S(=O)(=O)O)ccc21` [ABTS, 2,2'azinobis-3-ethylbenzthiazole-6-sulphonate], the kcat in test [1] (substrate ABTS, 25 mM succinate buffer, pH 4.5, 25°C) was determined as 68.83 s⁻¹; in test [2], 78.17 s⁻¹. The Km in test [2] was found to be 270 µM.
Turning to `COc1cc(C=NN=Cc2cc(OC)c(O)c(OC)c2)cc(OC)c1O` [Syringaldazin, syringaldazine], the turnover number (kcat) in test [1] (substrate Syringaldazin, 25°C, buffer unclear (40 mM MES buffer, pH 6 / 25 mM succinate buffer)) turned out to be 32.33 s⁻¹.
